Values of other authors as cited in US20090117559A1, “Methods for Determining Probability of an Adverse or Favorable Reaction to a Niacin Receptor Agonist” (priority 2005, published 2009).

How the values were obtained:
[1] = post administration of niacin by injection

## O=C(O)c1cccnc1 [niacin, nicotinic acid]
human, in vivo
  patients who cease taking niacin treatment within days after initiating therapy: 30-40%
Unsegmented (general) population, Shepherd et al. 2005
  subjects experiencing flushing in response to nicotinic acid therapy: 70-80%
[1]
  time after which the flushing reaction declines significantly: about 30 minutes
  time at which the flushing reaction peaks: about 3 minutes
